BindingDB's records for patent US10266537 (St. Chuan University, 2019)

Molecular target: Tyrosine-protein kinase ABL1 [T315I] (Homo sapiens, UniProt P00519, T315I)
Assay: Kinase Inhibition Assays

Question: Which IC50 does the source give for C=CC(=O)N1CCC(n2nc(C#Cc3cc(C(=O)Nc4ccc(CN5CCN(C)CC5)c(C(F)(F)F)c4)ccc3C)c3c(N)ncnc32)CC1 [US10266537, Compound 121] here?
Answer: The IC50 was 133 nM.
